Laboratory results: patent US4769389A, “Oxygenated-alkyl derivatives of glutamic and aspartic acids with antagonistic activity to bio-active polypeptides and a method for their preparation” (priority 1985, dated 1988)
Converted amounts (≈) assume the structure as drawn. Like-named read-outs stand apart in the source and are kept apart here.

Experiments:
guinea pig gall bladders = assay: Anti-CCK-8 activity on guinea-pig gallbladders in situ (in vivo); settings: Cavia porcellus, iv; CCK-8 10 ng/kg i.v.; compound i.v.; read-out: ID50, anti-CCK-8 activity in situ
Description: In order to confirm the evidence of the studies in vitro, several of the more interesting compounds were tested in vivo with the use of guinea-pig gallbladders in situ.
The method used was that described by Ljungberg (Svensk. Farm. Tidskr. 69, 351-354, 1964).
Guinea-pigs having a weight of about 400 g anaesthetised with urethane were used; the substances being tested were administered intravenously (i.v.) into the jugular vein.
The responses of the gallbladder to the substances being tested were detected by means of a force transducer and recorded by means of a microdynamometer. 10 ng/kg of CCK 8 were chosen as the optimum contracting dose. The antagonistic compounds tested were administered in increasing doses so as to enable the calculation of an ID50 value, that is the dose (in mg/kg i.v.) having a 50% inhibiting effect against contractions induced by 10 ng/kg i.v. of CCK-8.

guinea-pig gallbladder = assay: Anti-CCK activity on guinea-pig gallbladders in vitro (contraction by CCK-8); settings: for IC50: Cavia porcellus, CCK-8 10 ng/ml, in vitro
Description: ANTI-CCK ACTIVITY ON GUINEA-PIG GALLBLADDERS IN VITRO A longitudinal strip of guinea-pig gallbladder is placed in a bath for isolated organs in Krebs at a temperature of 32° C. and oxygenated continuously with an oxygen-CO2 mixture (95-[…]). The isometric contractions were detected by means of a force transducer and recorded. […] The results obtained are shown in Table 3 which gives the compounds tested and the IC50 values found which were calculated by the method of regression in a test of at least three experiments for each compound studied.

in vivo = settings: mouse, iv
digestive tract = assay: Antispastic activity, vegetable carbon test (speed of transit through stomach and intestine) in mice; type: in vivo; settings: Mus musculus, ip, read-out: A[…] ED50 (dose which reduces the intestinal transit time of the carbon by 50%), intraperitoneally
From the text: The anti-spastic activity which the present compounds exert on the whole of the digestive tract is also considerable. Measured in mice with the vegetable carbon test (speed of transit through the stomach and intestine) this activity is illustrated in the following table: […]

[1] = tested on: pancreatitis in rats induced experimentally by taurocholate; assay: Pancreatitis induced by sodium taurocolate in rats; type: in vivo; settings: for ED50: Rattus norvegicus, ip, taurocholate, rats
Description: The products under examination were administered intraperitoneally (i.p.) 30 minutes before the operation and 3 hours after the operation. Six hours after the laparatomy the blood was removed from the retro-orbitory plexus after anaesthesia with ether, the animals were killed and the pancreas was removed and weighed. The activity of the serum amylase was determined by the method described above.

colon of rabbits = assay: Antispastic activity in the colon of rabbits stimulated with CCK-8; type: in vivo, rabbit; design: Antispastic activity in colon, EXPERIMENT 1 / Antispastic activity in colon, EXPERIMENT 2: unit not given here; settings: CCK 100 ng/kg
Description: The abdomen of anaesthetised rabbit is cut open to display the tranverse colon. A small balloon full of water is inserted at an established point and connected to a pressure transducer by means of a polyethylene cannula filled with H2 O.
The optimum sensitivity being fixed in relation to the physiological contractions, the products were administered through the femeral vein. Contractions were induced by the administration of 100 ng/kg of CCK.

[2] = tested on: pancreatitis in mice induced experimentally by cerulein; assay: Pancreatitis induced by cerulein in mice; type: in vivo; settings: for ED50: Mus musculus, ip, cerulein, mice
Description: Adult male mice received six injections of cerulein (Takus) (50 mcg/kg) each hour for six hours.
The compound was administered 30 minutes before each administration of cerulein. Nine hours after the beginning of the treatment, the blood was taken from the rectro-orbitory plexus after anaesthesia with ether, the animals were killed and the pancreas removed and weighed.

## CCCCCN(CCOCC)C(=O)C(CCC(=O)O)NC(=O)c1ccc(Cl)cc1 (stereo not shown) [Compound 12]
Guinea pig gall bladders
  ED50: 4.44 mg/kg
guinea-pig gallbladder
  IC50: 2.9 µg/mL (≈ 6.79 µM)

## CCCCCN(CCCOC)C(=O)C(CCC(=O)O)NC(=O)c1cccc(Cl)c1 (stereo not shown) [Compound 13]
Guinea pig gall bladders
  ED50: 6.7 mg/kg
guinea-pig gallbladder
  IC50: 8.9 µg/mL (≈ 20.8 µM)

## CCCCCN(CCCOC)C(=O)C(CCC(=O)O)NC(=O)c1ccc(F)c(F)c1 (stereo not shown) [Compound 14]
Guinea pig gall bladders
  ED50: 1.1 mg/kg
In vivo
  LD50: 425 mg/kg
  selectivity ratio: 386
guinea-pig gallbladder
  IC50: 0.8 µg/mL (≈ 1.87 µM)

## COCCCN(CCCC(C)C)C(=O)C(CCC(=O)O)NC(=O)c1ccc(Cl)c(Cl)c1 (stereo not shown) [Compound 15]
Guinea pig gall bladders
  ED50: 0.84 mg/kg
In vivo
  LD50: 288 mg/kg
  selectivity ratio: 343
Digestive tract
  ED50: 44.2 mg/kg
guinea-pig gallbladder
  IC50: 0.7 µg/mL (≈ 1.47 µM)

## CCCCN(CCCOC)C(=O)C(CCC(=O)O)NC(=O)c1ccc(Cl)c(Cl)c1 (stereo not shown) [Compound 16]
Guinea pig gall bladders
  ED50: 2.08 mg/kg
guinea-pig gallbladder
  IC50: 1.5 µg/mL (≈ 3.35 µM)

## CCCCCCN(CCCOC)C(=O)C(CCC(=O)O)NC(=O)c1ccc(Cl)c(Cl)c1 (stereo not shown) [Compound 17]
Guinea pig gall bladders
  ED50: 3.25 mg/kg
guinea-pig gallbladder
  IC50: 1.6 µg/mL (≈ 3.37 µM)

## COCCCN(CCCC(C)(C)C)C(=O)C(CCC(=O)O)NC(=O)c1ccc(Cl)c(Cl)c1 (stereo not shown) [Compound 18]
Guinea pig gall bladders
  ED50: 6.79 mg/kg
guinea-pig gallbladder
  IC50: 4.8 µg/mL (≈ 9.81 µM)

## COCCCN(CCC(C)C)C(=O)C(CCC(=O)O)NC(=O)c1ccc(Cl)c(Cl)c1 (stereo not shown) [Compound 19]
Guinea pig gall bladders
  ED50: 0.74 mg/kg
In vivo
  LD50: 297 mg/kg
  selectivity ratio: 401
Digestive tract
  ED50: 18.5 mg/kg
guinea-pig gallbladder
  IC50: 0.6 µg/mL (≈ 1.3 µM)

## CCCCCN(CCCOC)C(=O)C(CC(=O)O)NC(=O)c1ccc(Cl)c(Cl)c1 (stereo not shown) [Compound 20]
Guinea pig gall bladders
  ED50: 0.84 mg/kg
In vivo
  LD50: 362 mg/kg
  selectivity ratio: 431
Digestive tract
  ED50: 27.9 mg/kg
guinea-pig gallbladder
  IC50: 0.9 µg/mL (≈ 2.01 µM)

## CCCCCN(CCCOC)C(=O)C(CC(=O)O)NC(=O)c1ccc(C)c(C)c1 (stereo not shown) [Compound 21]
Guinea pig gall bladders
  ED50: 3.69 mg/kg
guinea-pig gallbladder
  IC50: 4.7 µg/mL (≈ 11.6 µM)

## CCCN(CCC)C(=O)C(CCC(=O)O)NC(=O)c1ccccc1 (stereo not shown) [Proglumide, reference compound]
[1]; 200 mg/kg i.p. + taurocholate
  AMYLASE IN THE SERUM: 14.5 U/ml
  INHIBITION OF AMYLASE INCREASE: 45.5%
  INHIBITION OF WEIGHT INCREASE: 21.4%
  RATIO WEIGHT OF PANCREAS / ANIMAL WEIGHT: 0.49%
[1]; 400 mg/kg i.p. + taurocholate
  AMYLASE IN THE SERUM: 9.1 U/ml
  INHIBITION OF AMYLASE INCREASE: 89.4%
  INHIBITION OF WEIGHT INCREASE: 42.8%
  RATIO WEIGHT OF PANCREAS / ANIMAL WEIGHT: 0.46%
[1]; read-out: ED50, inhibition of amylase increase
  ED50: 222 mg/kg
[1]; read-out: ED50, inhibition of weight increase
  ED50: 467 mg/kg
Guinea pig gall bladders
  ED50: 70.5 mg/kg
In vivo
  LD50: 2400 mg/kg
  selectivity ratio: 34
Colon of rabbits; 25 mg/kg i.v.
  Antispastic activity in colon, EXPERIMENT 1: -33.7
  Antispastic activity in colon, EXPERIMENT 2: 0
Colon of rabbits; 50 mg/kg i.v.
  Antispastic activity in colon, EXPERIMENT 1: -38.1
  Antispastic activity in colon, EXPERIMENT 2: -16.1
Colon of rabbits; 100 mg/kg i.v.
  Antispastic activity in colon, EXPERIMENT 1: -64.4
  Antispastic activity in colon, EXPERIMENT 2: -43.1
Colon of rabbits; Oryctolagus cuniculus, iv
  ED50: 92.6 mg/kg
guinea-pig gallbladder
  IC50: 340 µg/mL (≈ 1020 µM)
guinea-pig gallbladder; in vitro gallbladder
  activity less than that of the most active compound in the invention: about 3000 times less
[2]; 200 mg/kg ip + cerulein
  AMYLASE IN THE SERUM: 48.2 U/ml
  INHIBITION OF WEIGHT INCREASE: 53.4%
  INHIBITION OF WEIGHT INCREASE (pancreas): 38.1%
  RATIO WEIGHT OF PANCREAS / ANIMAL WEIGHT: 0.47%
[2]; 400 mg/kg ip + cerulein
  AMYLASE IN THE SERUM: 26.2 U/ml
  INHIBITION OF WEIGHT INCREASE: 80.9%
  INHIBITION OF WEIGHT INCREASE (pancreas): 85.7%
  RATIO WEIGHT OF PANCREAS / ANIMAL WEIGHT: 0.37%
[2]; read-out: ED50 (inhibition of weight increase)
  ED50: 226 mg/kg
[2]; read-out: ED50, inhibition of weight increase of the pancreas
  ED50: 241 mg/kg
[2]; in words
  activity of proglumide in cerulein pancreatitis: also active but at considerably higher doses
